According to BigSolDB 2.1:

N#Cc1ccc2c(c1)OCO2
solubility (mole fraction)
Conditions | 278.15 K | 283.15 K | 288.15 K | 293.15 K | 298.15 K | 303.15 K | 308.15 K | 313.15 K | 318.15 K | 323.15 K
in 1,4-dioxane | – | – | 0.174 | 0.197 | 0.221 | 0.256 | 0.283 | 0.325 | 0.358 | 0.406
in 2-methoxyethanol | 0.0495 | 0.0606 | 0.0722 | 0.0849 | 0.101 | 0.119 | 0.137 | 0.16 | 0.192 | 0.221
in DMF | 0.172 | 0.193 | 0.212 | 0.239 | 0.264 | 0.293 | 0.32 | 0.36 | 0.39 | 0.433
in acetone | 0.101 | 0.118 | 0.136 | 0.158 | 0.181 | 0.207 | 0.237 | 0.269 | 0.307 | 0.349
in acetonitrile | 0.0673 | 0.0811 | 0.0999 | 0.12 | 0.143 | 0.173 | 0.203 | 0.243 | 0.283 | 0.33
in ethanol | 0.00686 | 0.00878 | 0.0111 | 0.0133 | 0.0166 | 0.0214 | 0.0266 | 0.034 | 0.0435 | 0.0548
in ethyl acetate | 0.0892 | 0.102 | 0.118 | 0.14 | 0.166 | 0.187 | 0.217 | 0.247 | 0.282 | 0.322
in isopropanol | 0.00473 | 0.00606 | 0.00772 | 0.00933 | 0.0127 | 0.0168 | 0.0202 | 0.0268 | 0.0338 | 0.0445
in isopropyl acetate | 0.0657 | 0.0784 | 0.0948 | 0.112 | 0.13 | 0.155 | 0.179 | 0.211 | 0.243 | 0.277
in methanol | 0.00823 | 0.0104 | 0.0123 | 0.0157 | 0.0192 | 0.024 | 0.031 | 0.0387 | 0.0495 | 0.0617
in methyl acetate | 0.102 | 0.118 | 0.137 | 0.16 | 0.184 | 0.21 | 0.24 | 0.274 | 0.31 | 0.353
in n-propanol | 0.00603 | 0.00758 | 0.00949 | 0.0122 | 0.0159 | 0.02 | 0.0255 | 0.0329 | 0.0433 | 0.0573
in n-propyl acetate | 0.0785 | 0.0928 | 0.113 | 0.128 | 0.149 | 0.176 | 0.204 | 0.235 | 0.27 | 0.31
